In patent US20250108038A1 (priority 2023, published 2025):
Several values for one entry are separate records, joined by “and”; a condition that tells them apart may be missing. Equal entries are not always repeated. Where two headings read alike, the source gives them in different places.

Assays:
Long Evans rats = assay: Time-restricted (deprivation-induced) feeding, food intake; assay type: in vivo, Long Evans rat; conditions: for Food Consumption, AVG / Food Consumption: 2 h feeding; for Food Consumption, AVG: average of 12 animals; for Food Consumption: individual animals LT-1 to LT-12
Method: Food consumption was limited to 2 h/day and so was motivated by hunger caused by 22 h food deprivation. Water was freely available 24 h/day.
Specifically, 12 male Long-Evans rats were food-deprived for 22 h with a 2 h feeding period each day. Rats were trained to consume daily food during the 2 h period over 25 days. The testing phase was initiated once the rats consistently consumed 16-18 g of food per day with ≤10% variance in amount of feed consumed. Feeding took place in designated individual boxes in a quiet room separate from the housing room. Continuous remote monitoring via video camera during feeding was used to assess the BSS. Food consumption was measured by weighing the total available food before and after the 2 h feeding window, correcting for spillage. Lorcaserin (1 mg/kg) was included as a reference control (Higgins et al, 2011, Neuropsychopharmacology. 37(5): 1177-1191). Subjects were tested using a repeated-measures, Latin square design with 2-3 days wash-out between treatment cycles.
Drug was administered at a volume of 1 mL/kg, intraperitoneal (IP). […]: 0.1, 0.3, 1, 3 mg/kg. There was a pretreatment time of 30 minutes.
Drug was administered at a volume of 1 mL/kg, subcutaneous (SC) route. One dose was tested: 1 mg/kg (expressed as base). There was a pretreatment time of 10 minutes.
Following a five day period of familiarization to the test facility, animals were placed on a restricted diet regimen, in which they were allotted approximately 40 g of standard laboratory chow once per day (between 10:00 h and 14:00 h). Rats were trained to consume the daily food (approximately 16-18 g of feed consumed) over a 2 h period. Daily food intakes were stable by study Day 25, with the quantity of feed consumed varying by ≤10% per day. Water was available ad-libitum. Subjects were pair-housed for the duration of the study and were maintained on a 12 h/12 h light/dark cycle with all testing conducted during the animals' light cycle. All animal use procedures were performed in accordance with the principles of the Canadian Council on Animal Care (CCAC).
Feed was measured using a certified scale according to standard operating procedures prior to testing. Residual feed was weighed following completion of the 2 h feeding window to track total intake (g).
Compound I-19 and Lorcaserin were prepared fresh on each test day. Test article was suspended in 0.8% DMSO, 6% PEG400, and 93.2% HβCD (6% in H2O) and sonicated until fully dissolved. […] Pretreatment time (ptt) was 30 minutes prior to commencement of testing. Lorcaserin was dissolved in 0.9% saline and administered via the subcutaneous route with a dose volume of 1 mL/kg with a ppt of 10 minutes.
The primary measure from the BSS test was total measured food intake (g), expressed as mean+SEM. Data were analysed by repeated-measures ANOVA (with treatment as a factor) (Statistica Version 11, Statsoft Inc. [2012]). Planned post-hoc comparisons were made in the event of a significant main effect using Dunnett's test. Significance was set at P<0.05.

[1] = assay type: physicochemical
Method: All conditions and stock preparation procedures were identical to the conditions applied in the transporter assays (Table 74, Table 75 and Table 76). […] A follow-up assay was carried out at 7 concentrations in order to correct the nominal concentrations for the IC50 calculations (Table 78). Where NSB was observed (>20% loss) the assay concentrations were corrected according to the result of the respective NSB assay.
All conditions and stock preparation procedures were identical to the conditions applied in the transporter assays.
Samples (1.5×C0 or Total) were immediately taken after mixing to determine the total initial concentrations. The assay mixes were pre-incubated for 15 minutes at 37° C. and at 32° C. in case of BCRP and MDR1. After the pre-incubation step the assay mixes were 1.5-times diluted with (pre-warmed) transport buffer reaching the final nominal concentrations of the compounds in the VT assay and then were further incubated at 37° C. or 32° C. for BCRP and MDR1 and sampled in the end of incubation (timc).
The aqueous buffer was mixed, and samples (C0 or Total) were immediately taken for determining the total initial concentrations. The helper plate was pre-warmed for 15 minutes at 37° C. The pre-warmed aliquots of the aqueous buffers with the test articles (50 μL) were transferred from the helper plate into the wells of another 96-well plate (assay plate) and incubated for 30 minutes (pre-incubation) then removed from the wells. Thereafter the same wells of the assay plate were dosed again with other aliquots of the aqueous buffers with the test articles and were further incubated in the assay plate at 37° C. and finally sampled (tinc).

[2] = HBSS (pH 7.4) uptake buffer, 37° C., nominal 10.00 μM
[3] = HBSS (pH 7.4) uptake buffer, 37° C., nominal 100.00 μM
[4] = HBSS (pH 7.4), 37° C., nominal 0.412 μM, IC50 determination
[5] = HBSS (pH 7.4), 37° C., nominal 1.235 μM, IC50 determination
[6] = HBSS (pH 7.4), 37° C., nominal 3.704 μM, IC50 determination
[7] = HBSS (pH 7.4), 37° C., nominal 11.11 μM, IC50 determination
[8] = HBSS (pH 7.4), 37° C., nominal 33.33 μM, IC50 determination
[9] = HBSS (pH 7.4), 37° C., nominal 100.00 μM, IC50 determination
[10] = KH (pH 8.0) uptake buffer, 37° C., nominal 10.000 μM
[11] = KH (pH 8.0) uptake buffer, 37° C., nominal 100.000 μM
[12] = KH (pH 8.0), 37° C., nominal 0.412 μM, IC50 determination
[13] = KH (pH 8.0), 37° C., nominal 1.235 μM, IC50 determination
[14] = KH (pH 8.0), 37° C., nominal 3.704 μM, IC50 determination
[15] = KH (pH 8.0), 37° C., nominal 11.11 μM, IC50 determination
[16] = KH (pH 8.0), 37° C., nominal 33.33 μM, IC50 determination
[17] = KH (pH 8.0), 37° C., nominal 100.00 μM, IC50 determination
[18] = Transport buffer (pH 7.4) for BSEP VT inhibition assay, 37° C., nominal C0 10.00 μM
[19] = Transport buffer (pH 7.4) for BSEP VT inhibition assay, 37° C., nominal C0 100.00 μM
[20] = Transport buffer with sucrose (pH 7.4) for BCRP and MDR1 VT inhibition assay, 32° C., nominal C0 10.00 μM
[21] = Transport buffer with sucrose (pH 7.4) for BCRP and MDR1 VT inhibition assay, 32° C., nominal C0 100.00 μM

Compound: Clc1ccc(C2(OCC3OCCO3)c3ccccc3C3=NCCN32)cc1 (centres unmarked) [Compound I-19]
- Compound A formed (Aa/Ai) (in vitro; 0 min): 0.60
- % Remaining (in vitro; 2.0 μM, 0 min): 100%
- Aa/Ai Mean (N = 2) (in vitro; 2.0 μM, 0 min): 1.62
- % Remaining (in vitro; 2.0 μM, 5 min): 99.1%
- Aa/Ai Mean (N = 2) (in vitro; 2.0 μM, 5 min): 1.61
- % Remaining (in vitro; 2.0 μM, 15 min): 98.2%
- Aa/Ai Mean (N = 2) (in vitro; 2.0 μM, 15 min): 1.59
- % Remaining (in vitro; 2.0 μM, 30 min): 92.8%
- Aa/Ai Mean (N = 2) (in vitro; 2.0 μM, 30 min): 1.50
- % Remaining (in vitro; 2.0 μM, 60 min): 79.6%
- Aa/Ai Mean (N = 2) (in vitro; 2.0 μM, 60 min): 1.29
- T1/2 (in vitro; 2.0 μM, 60 min incubation): 178 min
- Compound A formed (Aa/Ai) (in vitro; 5 min): 0.59
- Compound A formed (Aa/Ai) (in vitro; 15 min): 0.57
- Compound A formed (Aa/Ai) (in vitro; 30 min): 0.52
- Compound A formed (Aa/Ai) (in vitro; 60 min): 0.47
- Food Consumption, AVG (Long Evans rats; 0.1 mg/kg intraperitoneal): 17.8 grams
- Food Consumption (Long Evans rats; 0.1 mg/kg intraperitoneal): 22.2 grams and 13.4 grams and 17.8 grams and 18.2 grams and 19.4 grams (2×) and 20.7 grams and 18 grams and 15.7 grams and 14.5 grams and 14.1 grams and 19.7 grams
- Food Consumption, AVG (Long Evans rats; 0.3 mg/kg intraperitoneal): 17.2 grams
- Food Consumption (Long Evans rats; 0.3 mg/kg intraperitoneal): 22.1 grams and 15 grams and 18.8 grams and 15.4 grams and 19 grams and 18.2 grams and 18.1 grams and 15.8 grams and 17.8 grams and 14.9 grams and 14.5 grams and 16.5 grams
- Food Consumption, AVG (Long Evans rats; 1 mg/kg intraperitoneal): 15.8 grams
- Food Consumption (Long Evans rats; 1 mg/kg intraperitoneal): 18.7 grams and 13.2 grams and 17.8 grams and 15.8 grams and 19.3 grams and 17.7 grams and 13.4 grams and 14 grams and 14.9 grams (2×) and 13.8 grams and 16.3 grams
- decrease of food intake vs vehicle (Long Evans rats; 3 mg/kg Compound I-19 IP): 10.6%
- Food Consumption, AVG (Long Evans rats; 3 mg/kg intraperitoneal): 15.9 grams
- Food Consumption (Long Evans rats; 3 mg/kg intraperitoneal): 19 grams and 14.1 grams and 18.3 grams and 14 grams and 17.7 grams and 16.6 grams and 16.3 grams and 14.8 grams and 15.5 grams and 15 grams and 13.1 grams and 16.8 grams
- effect on food intake (Long Evans rats; acute, 0.1, 0.3, 1, 3 mg/kg IP): significantly decreased food intake at 1 and 3 mg/kg
- food intake (2 h feeding period) (Long Evans rats; rat, in vivo): 15.9 ± 0.5 g
- Non-specific binding (NSB) ([1]; BCRP, BSEP and MDR1 VT inhibition assay setup): did not show any loss due to plastic binding
- Non-specific binding (NSB) ([1]; HBSS (pH 7.4) and KH (pH 8.0) uptake assay buffers): more than 20%
- Concentration after incubation [1, 2]: 5.98 ± 0.13 µM
- Loss of Compound I-19 during the NSB assay [1, 2]: 34%
- Measured dosing concentrations [1, 2]: 8.99 ± 0.60 µM
- Concentration after incubation [1, 3]: 59.43 ± 5.59 µM
- Loss of Compound I-19 during the NSB assay [1, 3]: 23%
- Measured dosing concentrations [1, 3]: 76.99 ± 6.62 µM
- Concentration after incubation [1, 4]: 0.35 ± 0.03 µM
- Loss of Compound I-19 during the NSB assay [1, 4]: 39%
- Measured dosing concentrations [1, 4]: 0.57 ± 0.14 µM
- Concentration after incubation [1, 5]: 0.83 ± 0.07 µM
- Loss of Compound I-19 during the NSB assay [1, 5]: 30%
- Measured dosing concentrations [1, 5]: 1.18 ± 0.09 µM
- Concentration after incubation [1, 6]: 2.49 ± 0.18 µM
- Loss of Compound I-19 during the NSB assay [1, 6]: 49%
- Measured dosing concentrations [1, 6]: 4.84 ± 0.73 µM
- Concentration after incubation [1, 7]: 6.86 ± 0.20 µM
- Loss of Compound I-19 during the NSB assay [1, 7]: 29%
- Measured dosing concentrations [1, 7]: 9.59 ± 1.50 µM
- Concentration after incubation [1, 8]: 17.44 ± 3.56 µM
- Loss of Compound I-19 during the NSB assay [1, 8]: 27%
- Measured dosing concentrations [1, 8]: 23.77 ± 2.59 µM
- Concentration after incubation [1, 9]: 34.49 ± 3.00 µM
- Loss of Compound I-19 during the NSB assay [1, 9]: 12%
- Measured dosing concentrations [1, 9]: 38.99 ± 3.97 µM
- Concentration after incubation [1, 10]: 5.54 ± 0.13 µM
- Loss of Compound I-19 during the NSB assay [1, 10]: 36%
- Measured dosing concentrations [1, 10]: 8.68 ± 0.34 µM
- Concentration after incubation [1, 11]: 20.35 ± 1.94 µM
- Loss of Compound I-19 during the NSB assay [1, 11]: 33%
- Measured dosing concentrations [1, 11]: 30.52 ± 1.33 µM
- Concentration after incubation [1, 12]: 0.27 ± 0.02 µM
- Loss of Compound I-19 during the NSB assay [1, 12]: 39%
- Measured dosing concentrations [1, 12]: 0.44 ± 0.10 µM
- Concentration after incubation [1, 13]: 0.73 ± 0.04 µM
- Loss of Compound I-19 during the NSB assay [1, 13]: 34%
- Measured dosing concentrations [1, 13]: 1.10 ± 0.10 µM
- Concentration after incubation [1, 14]: 1.68 ± 0.26 µM
- Loss of Compound I-19 during the NSB assay [1, 14]: 36%
- Measured dosing concentrations [1, 14]: 2.63 ± 1.34 µM
- Concentration after incubation [1, 15]: 4.05 ± 0.49 µM
- Loss of Compound I-19 during the NSB assay [1, 15]: 45%
- Measured dosing concentrations [1, 15]: 7.32 ± 3.86 µM
- Concentration after incubation [1, 16]: 12.58 ± 1.30 µM
- Loss of Compound I-19 during the NSB assay [1, 16]: 39%
- Measured dosing concentrations [1, 16]: 20.72 ± 2.88 µM
- Concentration after incubation [1, 17]: 34.06 ± 2.30 µM
- Loss of Compound I-19 during the NSB assay [1, 17]: 25%
- Measured dosing concentrations [1, 17]: 45.32 ± 9.94 µM
- Concentration after incubation (tinc) [1, 18]: 12.92 ± 0.21 µM
- Loss of Compound I-19 during the NSB assay [1, 18]: −4%
- Measured dosing concentrations ([…] C0) [1, 18]: 18.55 ± 0.06 µM
- Concentration after incubation (tinc) [1, 19]: 122.52 ± 9.60 µM
- Loss of Compound I-19 during the NSB assay [1, 19]: −13%
- Measured dosing concentrations ([…] C0) [1, 19]: 162.83 ± 11.51 µM
- Concentration after incubation (tinc) [1, 20]: 13.10 ± 1.26 µM
- Loss of Compound I-19 during the NSB assay [1, 20]: −11%
- Measured dosing concentrations ([…] C0) [1, 20]: 17.68 ± 0.42 µM
- Concentration after incubation (tinc) [1, 21]: 124.55 ± 5.96 µM
- Loss of Compound I-19 during the NSB assay [1, 21]: −12%
- Measured dosing concentrations ([…] C0) [1, 21]: 167.14 ± 11.84 µM
- Concentration after incubation ([1]; pH 7.4): 0.15 ± 0.01 µM
- Loss of Compound I-19 during the NSB assay ([1]; pH 7.4): 33%
- Measured dosing concentrations ([1]; pH 7.4): 0.23 ± 0.02 µM
- Concentration after incubation ([1]; pH 8): 0.10 ± 0.01 µM
- Loss of Compound I-19 during the NSB assay ([1]; pH 8): 41%
- Measured dosing concentrations ([1]; pH 8): 0.17 ± 0.02 µM
